Measured values: publication PMC9283466, “In silico identification of two peptides with antibacterial activity against multidrug-resistant Staphylococcus aureus” (NPJ Biofilms and Microbiomes, 2022)
In brackets after ≈: the same amount, converted by molar mass. Bridge positions count the residues as written; N and C are the ends. Peptide text beside a SMILES is read from it.

Legend:
S. aureus EMRSA-15 = test: microbe, parasite or virus in culture; assay type: cell-based, Staphylococcus aureus; details: EMRSA-15
Procedure: (§1) To determine the antimicrobial activity of the new antimicrobial peptides, HG2 and HG4, their minimum inhibitory concentrations (MICs) were determined by broth microdilution method[51] in cation adjusted Mueller Hinton broth (MHB) following the International Organisation for Standardisation (ISO) 20776-1 standard for MIC testing using a final bacterial inoculum of 5 × 10^5 CFU/ml[52]. […] The peptides dissolved in sterile distilled water were added to bacteria culture and incubated overnight at appropriate conditions. The MICs of the peptides and comparator antibiotics were recorded after 18–24 h. The minimum bactericidal concentrations (MBCs) were also determined and were taken as the lowest concentration of the antimicrobial that prevented the growth of bacterial cells after the subculture of cells (from MIC treatment) onto antibiotic-free media.

S. aureus ATCC 33591 = test: microbe, parasite or virus in culture; assay type: cell-based, Staphylococcus aureus; details: ATCC 33591
Procedure: as §1

[1] = test system: S. aureus USA300 BAA-1717; test: microbe, parasite or virus in culture; assay type: cell-based, Staphylococcus aureus; details: USA300
Procedure: as §1

[2] = test system: MRSA USA300 cytoplasmic membrane; assay type: cell-based, Staphylococcus aureus; details: for EC50 of membrane permeabilisation: USA300, 3 h
Procedure: Permeabilisation of the bacterial cytoplasmic membrane by HG2 and HG4 peptide was evaluated using the cell-impermeable DNA probe propidium iodide[14],[40]. Logarithmic-phase bacterial suspension of MRSA USA300 was prepared by diluting overnight cultures in fresh MHB (1 in 10 dilutions), incubated (3 h; 37 °C; 200 rpm), and pelleted by centrifugation (5 min; 3000×g). The bacterial cell pellet was then resuspended in sterile PBS at ~10^9 bacteria/ml. Propidium iodide (at 1 mg/ml, Sigma-Aldrich) was added to the bacterial suspension at a final concentration of 60 µM. This suspension (100 µl) was then transferred into black 96-well plates already containing 100 µl of serially diluted HG2 or HG4 peptide in PBS. Kinetics of fluorescence variations (excitation at 530 nm/emission at 590 nm) were then recorded using a microplate reader for a duration of 80 min with incubation at 37 °C. Cetyl trimethylammonium bromide (CTAB) (at 300 µM) served as positive control giving 100% permeabilisation. The permeabilisation effect of HG2 and HG4 were expressed as a percentage of total permeabilisation.

E. coli K12 = test: microbe, parasite or virus in culture; assay type: cell-based, Escherichia coli; details: K12
Procedure: as §1

B. cereus = test: microbe, parasite or virus in culture; assay type: cell-based, Bacillus cereus
Procedure: as §1

HepG2 (liver cell line) = test: Cytotoxicity, resazurin cell viability; assay type: cell-based, human; details: 48 h
Procedure: (§2) The toxicity of HG2 and HG4 was tested by a well-known method[60] using the following cell types: BEAS-2B (normal airway epithelial cells, ATCC CRL-9609), IMR-90 (normal fibroblasts, ATCC CCL-186) and HepG2 (liver cell line, ATCC HB-8065). BEAS-2B, IMR-90 and HepG2 cells were cultured in Dulbecco’s modified essential medium (DMEM) supplemented with 10% fetal calf serum (FCS), 1% L-glutamine and 1% antibiotics (all from Invitrogen). Cells were routinely grown onto 25 cm^2 flasks maintained in a 5% CO2 incubator at 37 °C. Briefly, cells grown on 25 cm^2 flasks were detached using trypsin-EDTA solution (Thermofisher) and seeded into 96-well cell culture plates (Greiner Bio-one) at ~10^4 cells per well (counted using Mallasez’s chamber). The cells were grown at 37 °C in a 5% CO2 incubator until they reached confluence (~48–72 h of seeding). Wells were then aspirated and increasing concentrations of HG2 or HG4 were added to the cells and incubated for a further 48 h at 37 °C in a 5% CO2 incubator. The wells were then emptied, and cell viability was evaluated using a resazurin based in vitro toxicity assay kit (Sigma-Aldrich) following the manufacturer’s instructions. Briefly, the resazurin stock solution was diluted at 1:100 in sterile PBS containing calcium and magnesium (PBS^++, pH 7.4) and emptied wells were filled with 100 µl of the diluted resazurin solution. After 4 h incubation at 37 °C with the peptide-treated cells, fluorescence intensity was measured using a microplate reader (excitation wavelength of 530 nm/emission wavelength of 590 nm). The fluorescence values were normalised by the controls and expressed as the percentage of cell viability. The IC50 values of HG2 or HG4 on cell viability (i.e. the concentration of peptides causing a reduction of 50% of the cell viability) were calculated using GraphPad® Prism 7 software.

[3] = test system: IMR-90 (normal fibroblasts); test: Cytotoxicity, resazurin cell viability; assay type: cell-based, human; details: 48 h
Procedure: as §2

[4] = test system: BEAS-2B (normal airway epithelial cells); test: Cytotoxicity, resazurin cell viability; assay type: cell-based, human; details: 48 h
Procedure: as §2

[5] = test system: A. baumannii (IMI, MER resistant; strain ID not given); test: microbe, parasite or virus in culture; assay type: cell-based, Acinetobacter baumannii; details: MER resistant, no strain ID printed
Procedure: as §1

A. baumannii 515908 = test: microbe, parasite or virus in culture; assay type: cell-based, Acinetobacter baumannii; details: 515908
Procedure: as §1

A. baumannii 515785 = test: microbe, parasite or virus in culture; assay type: cell-based, Acinetobacter baumannii; details: 515785
Procedure: as §1

A. baumannii 515722 = test: microbe, parasite or virus in culture; assay type: cell-based, Acinetobacter baumannii; details: 515722
Procedure: as §1

MRSA USA300 cells = test: Transmission electron microscopy; assay type: cell-based, Staphylococcus aureus; details: 3x MICs for 60 min
Description: Transmission electron microscopy[14] was used to investigate the effects of HG2 and HG4 on MRSA USA300 cell morphology. […] They were then stained with 2% (w/v) uranyl acetate and Reynold’s lead citrate after which they were observed using a JEM1010 transmission electron microscope (JEOL Ltd, Tokyo, Japan) at 80 kV.

## CC[C@H](C)[C@H](NC(=O)[C@H](CC(C)C)NC(=O)[C@H](CC(C)C)NC(=O)[C@H](CC(C)C)NC(=O)[C@H](CCCCN)NC(=O)[C@H](CCCCN)NC(=O)[C@@H](N)CCSC)C(=O)N[C@@H](CC(C)C)C(=O)N[C@@H](Cc1ccccc1)C(=O)N[C@H]1CSSC[C@@H](C(=O)N[C@@H](CCCCN)C(=O)N[C@@H](CCCCN)C(=O)N[C@@H](C)C(=O)N2CCC[C@H]2C(N)=O)NC(=O)CNC(=O)[C@H](C)NC(=O)[C@H](CC(C)C)NC(=O)[C@H](C)NC(=O)[C@H](CC(C)C)NC(=O)[C@H](C)NC(=O)[C@H](CC(C)C)NC1=O [HG2] (H-MKKLLLILFCLALALAGCKKAP-NH2; disulfide 10-18; N-terminus assumed)
S. aureus EMRSA-15
  MIC: 32 µg/mL (≈ 13.6 µM)
S. aureus ATCC 33591
  MIC: 64 µg/mL (≈ 27.2 µM)
[1]
  MIC: 16 µg/mL (≈ 6.79 µM)
[2]
  EC50 of membrane permeabilisation: 1.351 ± 0.27 µg/mL
[2]; at MIC concentration
  permeabilisation at 1 min: 80%
E. coli K12
  MIC: 256 µg/mL (≈ 109 µM)
B. cereus
  MIC: 256 µg/mL (≈ 109 µM)
HepG2 (liver cell line)
  IC50 (cell viability): 359 ± 76 µg/mL (≈ 152 µM)
[3]
  IC50 (cell viability): 96 ± 21 µg/mL (≈ 40.7 µM)
[4]
  IC50 (cell viability): 120 ± 25 µg/mL (≈ 50.9 µM)
[5]
  MIC: 128 µg/mL (≈ 54.3 µM)
A. baumannii 515908
  MIC: 32 µg/mL (≈ 13.6 µM)
A. baumannii 515785
  MIC: 256 µg/mL (≈ 109 µM)
A. baumannii 515722
  MIC: 16 µg/mL (≈ 6.79 µM)
MRSA USA300 cells
  cell morphology by TEM: changes in cell morphology and some cytoplasmic damage

## CC[C@H](C)[C@H](NC(=O)[C@H](CC(C)C)NC(=O)[C@H](CC(C)C)NC(=O)[C@H](C)NC(=O)CNC(=O)CNC(=O)[C@@H](NC(=O)[C@@H](NC(=O)[C@H](CC(C)C)NC(=O)[C@H](C)NC(=O)[C@H](CC(C)C)NC(=O)CNC(=O)[C@H](CC(C)C)NC(=O)[C@@H](N)C(C)C)[C@@H](C)CC)C(C)C)C(=O)N[C@@H](CCCCN)C(=O)N[C@@H](CCCCN)C(=O)N[C@@H](CCCCN)C(=O)N[C@@H](CCC(N)=O)C(=O)N[C@@H](C)C(=O)N[C@@H](CCCCN)C(=O)N[C@@H](CO)C(N)=O [HG4] (H-VLGLALIVGGALLIKKKQAKS-NH2; N-terminus and C-terminus assumed)
S. aureus EMRSA-15
  MIC: 32 µg/mL (≈ 15.1 µM)
S. aureus ATCC 33591
  MIC: 32 µg/mL (≈ 15.1 µM)
[1]
  MIC: 32 µg/mL (≈ 15.1 µM)
[2]
  EC50 of membrane permeabilisation: 13.85 ± 3.22 µg/mL
E. coli K12
  MIC: 512 µg/mL (≈ 242 µM)
B. cereus
  MIC: 512 µg/mL (≈ 242 µM)
HepG2 (liver cell line)
  IC50 (cell viability): > 1000 µg/mL
[3]
  IC50 (cell viability): 294 ± 42 µg/mL (≈ 139 µM)
[4]
  IC50 (cell viability): > 1000 µg/mL
[5]
  MIC: 64 µg/mL (≈ 30.2 µM)
A. baumannii 515908
  MIC: 64 µg/mL (≈ 30.2 µM)
A. baumannii 515785
  MIC: 128 µg/mL (≈ 60.4 µM)
A. baumannii 515722
  MIC: 32 µg/mL (≈ 15.1 µM)
MRSA USA300 cells
  cell morphology by TEM: changes in cell morphology and some cytoplasmic damage
